US20100137260A1, “COMPOUND FOR INHIBITING TRPV3 FUNCTION AND USE THEREOF” (Korea University Industry and Academic Collaboration …, priority 2008, published 2010)

Test system: HaCat skin cells
Assay: Artificial wound recovery (cell migration and proliferation) in HaCat cells (FIG. 3)
Assay type: cell-based
Details: 12 hours; for Migration and proliferation of HaCaT cells in medium containing camphor: medium containing 4 mM camphor, IPP 10 μM, FPP 1 μM, GPP 10 μM
Method: The present inventors drew lines 1 mm deep on the well fully filled with the cells to make artificial wound. The wounded cells were treated with IPP (10 μM), FPP (1 μM) and GPP (10 μM: geranyl pyrophosphate, Biomol, USA) respectively and incubated in a CO2 incubator for 12 hours. The control group was not-treated. The width of recovered wound was measured under microscope and compared with that at the beginning, which was presented as wound recovery rate. All the experiments were performed on DMEM/FBS. Floating cells, which means dead cells, after making wound, were eliminated by using PBS to eliminate variables caused by dead cells. The cells were observed under microscope (×40), and distance was measured by using image analysis program (Meta-flour 7.1 Molecular Devices, USA).

Structure (SMILES) | Migration and proliferation of HaCat skin cells, compound alone (FPP alone (1 μM)) | Migration and proliferation of HaCaT cells in medium containing camphor
CC(C)=CCC/C(C)=C/CC/C(C)=C/COP(=O)(O)OP(=O)(O)O [FPP] | confirmed the inhibitory effect | inhibitory effect was not observed
CC(C)=CCC/C(C)=C/COP(=O)(O)OP(=O)(O)O [GPP, geranyl pyrophosphate] |  | inhibitory effect was not observed
